Data as given in patent US20210115104A1, “AMYLIN ANALOGUES” (Zealand Pharma A/S, priority 2015, published 2021).
*1 amine or outer side, *2 acyl side, *3 side chain or, on linkers, in order; H or OH if unused. Where a SMILES comes first, the peptide text is derived from it. Bridges are numbered along the chain shown (N, C = ends). [ ]: non-standard residue; d: D form. The star is where a group is joined. C20 diacid = O=C(O)CCCCCCCCCCCCCCCCCCC(=O)*; Pro(4R-NH2) = N[C@H]1CN[C@H](C(=O)O)C1; γGlu = O=C(O)[C@H](CCC(=O)[*:2])N[*:1]; Hyp = O=C(O)[C@@H]1C[C@@H](O)CN1; NMeI = CC[C@H](C)[C@H](NC)C(=O)O; Sar = CNCC(=O)O

molecular target: T1, human calcitonin receptor (hCTR2) (Homo sapiens, UniProt P30988); assay: hCTR2 cAMP assay (AlphaScreen) in COS7 cells; assay type: cell-based; conditions: cAMP induction, COS7 cells expressing hCTR2; Table 1; read-out: hCTR2 EC50
T1 construct: expressed in transfected cells
T1 sequence (P30988 25-474): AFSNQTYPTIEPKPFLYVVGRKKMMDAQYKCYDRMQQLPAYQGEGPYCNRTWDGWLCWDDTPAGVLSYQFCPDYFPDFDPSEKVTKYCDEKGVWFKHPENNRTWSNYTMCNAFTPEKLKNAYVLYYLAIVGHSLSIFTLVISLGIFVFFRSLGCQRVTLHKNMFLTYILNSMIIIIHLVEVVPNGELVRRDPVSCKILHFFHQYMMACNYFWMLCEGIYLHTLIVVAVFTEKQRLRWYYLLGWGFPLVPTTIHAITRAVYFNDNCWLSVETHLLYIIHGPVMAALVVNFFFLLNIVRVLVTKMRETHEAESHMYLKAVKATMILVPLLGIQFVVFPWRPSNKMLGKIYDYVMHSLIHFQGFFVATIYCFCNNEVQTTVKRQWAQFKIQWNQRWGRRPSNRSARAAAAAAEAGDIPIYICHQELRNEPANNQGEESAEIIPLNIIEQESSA
Description: The cell line COS7, originating from African Green Monkey kidney fibroblast cells, was used for establishment of the stable cell lines described below. The COS7 cellular background was used due to it being RAMP naïve, and as such it provides the best available system for testing of the monomeric hCTR and different heterodimeric amylin receptor subtypes functionally generated by introduction of the individual RAMPs.
A cell line expressing the human calcitonin receptor (hCTR2) was generated in the COS7 cellular background as stable clones. In brief, hCTR2 (GI: 4502547) was amplified by PCR using primers encoding terminal restriction sites for subcloning. The 5′-end primers additionally encoded a near Kozak consensus sequence to ensure efficient translation. The fidelity of the DNA encoding the receptor was confirmed by DNA sequencing. The PCR products encoding the receptor were subcloned into a mammalian expression vector containing a neomycin (G418) resistance marker. The mammalian expression vector encoding the receptor was transfected into COS7 cells by a standard liposome transfection method. 48 hours post-transfection, cells were seeded for limited dilution cloning and selected with 1 mg/ml G418 in the culture medium. After 3 weeks, surviving colonies of hCTR2-expressing cells were picked, propagated and tested in the amylin efficacy assay as described in Example 3 below. One hCTR2-expressing clone was chosen for compound profiling.
In vitro activity of test peptides at the hCTR2 and hAMYR3 receptors was assessed by measuring the induction of cAMP following stimulation of the receptor using the AlphaScreen® cAMP Assay kit from Perkin-Elmer.
Briefly, COS7 cells expressing hCTR2 (see Example 2, above) were seeded at 30-40,000 cells per well in 96-well microtiter plates coated with 0.01% poly-L-lysine, and grown for 1 day in culture in 100 μl growth medium [DMEM, 10% FCS, Penicillin (100 IU/ml), Streptomycin (100 μg/ml)]. On the day of analysis, growth medium was removed and the cells were washed once with 200 μl Tyrode buffer [Tyrode's Salts (9.6 g/I), 10 mM HEPES, pH 7.4]. Cells were incubated in 100 μl Tyrode buffer containing increasing concentrations of test peptides, 100 µM IBMX and 0.1% casein for 15 min at 37° C. The reaction was stopped by carefully decanting off the compound/buffer medium and replacing it with lysis/detection buffer (80 μl 0.1% w/v BSA, 5 mM HEPES, 0.3% v/v Tween-20 in deionized water). After incubation at room temperature for 10 min., the cAMP content of the resulting cell lysate was estimated according to the AlphaScreen® cAMP Assay manufacturer's instructions. EC50 values were estimated by computer-aided curve fitting using the 4-parameter logistic (4PL) non-linear model.

Row | SMILES | EC50 [nM]
1 | CC[C@H](C)[C@@H](C(=O)N[C@@H](CC(C)C)C(=O)N[C@@H](CO)C(=O)N[C@@H](CO)C(=O)N[C@H](C(=O)N[C@@H](CCC(=O)O)C(=O)N[C@H](C(=O)NCC(=O)N[C@@H](CO)C(=O)N[C@@H](CO)C(=O)N[C@H](C(=O)N1C[C@H](N)C[C@H]1C(N)=O)[C@@H](C)O)C(C)C)[C@@H](C)O)N(C)C(=O)[C@H](C)NC(=O)CN(C)C(=O)[C@H](Cc1ccccc1)NC(=O)[C@H](CO)NC(=O)[C@H](CO)NC(=O)[C@H](CCCNC(=N)N)NC(=O)[C@@H](NC(=O)[C@H](CC(C)C)NC(=O)[C@H](Cc1ccccc1)NC(=O)[C@H](Cc1c[nH]cn1)NC(=O)[C@H](C)NC(=O)[C@H](CC(C)C)NC(=O)[C@H](CCCNC(=N)N)NC(=O)[C@H](CCC(=O)O)NC(=O)[C@@H](NC(=O)[C@H](C)NC(=O)[C@@H]1CSSC[C@H](NC(=O)[C@H](CCCNC(=N)N)NC(=O)CC[C@H](NC(=O)CCCCCCCCCCCCCCCCCCC(=O)O)C(=O)O)C(=O)NCC(=O)N[C@@H]([C@@H](C)O)C(=O)N[C@@H](C)C(=O)N[C@@H]([C@@H](C)O)C(=O)N1)[C@@H](C)O)[C@@H](C)O [Compound 45, [19CD]-isoGlu-R-C( )-GTAT-C( )-ATERLAHFLTRSSF-Gly(Me)-A-Ile(Me)-LSSTEVGSST-Apr-NH2] ({C20 diacid-γGlu}-RCGTATCATERLAHFLTRSSF[Sar]A[NMeI]LSSTEVGSST[Pro(4R-NH2)]-NH2; disulfide 2-7) | 0.16
2 | CC[C@H](C)[C@@H](C(=O)N[C@@H](CC(C)C)C(=O)N[C@@H](CO)C(=O)N[C@@H](CO)C(=O)N[C@H](C(=O)N[C@@H](CCC(=O)O)C(=O)N[C@H](C(=O)NCC(=O)N[C@@H](CO)C(=O)N[C@@H](CC(N)=O)C(=O)N[C@H](C(=O)N1C[C@H](O)C[C@H]1C(N)=O)[C@@H](C)O)C(C)C)[C@@H](C)O)N(C)C(=O)[C@H](C)NC(=O)CN(C)C(=O)[C@H](Cc1ccccc1)NC(=O)[C@H](CO)NC(=O)[C@H](CO)NC(=O)[C@H](CCCNC(=N)N)NC(=O)[C@H](CCC(N)=O)NC(=O)[C@H](CC(C)C)NC(=O)[C@H](Cc1ccccc1)NC(=O)[C@H](Cc1c[nH]cn1)NC(=O)[C@H](C)NC(=O)[C@H](CC(C)C)NC(=O)[C@H](CCCNC(=N)N)NC(=O)[C@H](CCC(=O)O)NC(=O)[C@@H](NC(=O)[C@H](C)NC(=O)[C@@H]1CSSC[C@H](NC(=O)[C@H](CCCNC(=N)N)NC(=O)CC[C@H](NC(=O)CCCCCCCCCCCCCCCCCCC(=O)O)C(=O)O)C(=O)N2CCC[C@H]2C(=O)N[C@@H]([C@@H](C)O)C(=O)N[C@@H](C)C(=O)N[C@@H]([C@@H](C)O)C(=O)N1)[C@@H](C)O [Compound 63, [19CD]-isoGlu-R-C( )-PTAT-C( )-ATERLAHFLQRSSF-Gly(Me)-A-Ile(Me)-LSSTEVGSNT-Hyp-NH2] ({C20 diacid-γGlu}-RCPTATCATERLAHFLQRSSF[Sar]A[NMeI]LSSTEVGSNT[Hyp]-NH2; disulfide 2-7) | 0.35
3 | CC[C@H](C)[C@@H](C(=O)N[C@@H](CC(C)C)C(=O)N[C@@H](CO)C(=O)N[C@@H](CO)C(=O)N[C@H](C(=O)N[C@@H](CCC(=O)O)C(=O)N[C@H](C(=O)NCC(=O)N[C@@H](CO)C(=O)N[C@@H](CC(N)=O)C(=O)N[C@H](C(=O)N1CCC[C@H]1C(N)=O)[C@@H](C)O)C(C)C)[C@@H](C)O)N(C)C(=O)[C@H](C)NC(=O)CN(C)C(=O)[C@H](Cc1ccccc1)NC(=O)[C@H](CO)NC(=O)[C@H](CO)NC(=O)[C@H](CCCNC(=N)N)NC(=O)[C@H](CCC(N)=O)NC(=O)[C@H](CC(C)C)NC(=O)[C@H](Cc1ccccc1)NC(=O)[C@H](CC(=O)O)NC(=O)[C@H](C)NC(=O)[C@H](CC(C)C)NC(=O)[C@H](CCCNC(=N)N)NC(=O)[C@H](CCC(=O)O)NC(=O)[C@@H](NC(=O)[C@H](C)NC(=O)[C@@H]1CSSC[C@H](NC(=O)[C@H](CCCNC(=N)N)NC(=O)CC[C@H](NC(=O)CCCCCCCCCCCCCCCCCCC(=O)O)C(=O)O)C(=O)N2CCC[C@H]2C(=O)N[C@@H]([C@@H](C)O)C(=O)N[C@@H](C)C(=O)N[C@@H]([C@@H](C)O)C(=O)N1)[C@@H](C)O [Compound 67, [19CD]-isoGlu-R-C( )-PTAT-C( )-ATERLADFLQRSSF-Gly(Me)-A-Ile(Me)-LSSTEVGSNTP-NH2] ({C20 diacid-γGlu}-RCPTATCATERLADFLQRSSF[Sar]A[NMeI]LSSTEVGSNTP-NH2; disulfide 2-7) | 0.27

Stronger by EC50, values ahead:

Row | EC50 [nM] | SMILES
4 | 0.13 | CC[C@H](C)[C@@H](C(=O)N[C@@H](CC(C)C)C(=O)N[C@@H](CO)C(=O)N[C@@H](CO)C(=O)N[C@H](C(=O)N[C@@H](CCC(=O)O)C(=O)N[C@H](C(=O)NCC(=O)N[C@@H](CO)C(=O)N[C@@H](CC(N)=O)C(=O)N[C@H](C(=O)N1C[C@H](O)C[C@H]1C(N)=O)[C@@H](C)O)C(C)C)[C@@H](C)O)N(C)C(=O)[C@H](C)NC(=O)CN(C)C(=O)[C@H](Cc1ccccc1)NC(=O)[C@H](CO)NC(=O)[C@H](CO)NC(=O)[C@H](CCCNC(=N)N)NC(=O)[C@@H](NC(=O)[C@H](CC(C)C)NC(=O)[C@H](Cc1ccccc1)NC(=O)[C@H](CC(N)=O)NC(=O)[C@H](C)NC(=O)[C@H](CC(C)C)NC(=O)[C@H](CCCNC(=N)N)NC(=O)[C@H](CCC(=O)O)NC(=O)[C@@H](NC(=O)[C@H](C)NC(=O)[C@@H]1CSSC[C@H](NC(=O)[C@H](CCCNC(=N)N)NC(=O)CC[C@H](NC(=O)CCCCCCCCCCCCCCCCCCC(=O)O)C(=O)O)C(=O)NCC(=O)N[C@@H]([C@@H](C)O)C(=O)N[C@@H](C)C(=O)N[C@@H]([C@@H](C)O)C(=O)N1)[C@@H](C)O)C(C)C [Compound 17, [19CD]-isoGlu-R-C( )-GTAT-C( )-ATERLANFLVRSSF-Gly(Me)-A-Ile(Me)-LSSTEVGSNT-Hyp-NH2] ({C20 diacid-γGlu}-RCGTATCATERLANFLVRSSF[Sar]A[NMeI]LSSTEVGSNT[Hyp]-NH2; disulfide 2-7)
5 | 0.12 | CC[C@H](C)[C@@H](C(=O)N[C@@H](CC(C)C)C(=O)N[C@@H](CO)C(=O)N[C@@H](CO)C(=O)N[C@H](C(=O)N[C@@H](CCC(=O)O)C(=O)N[C@H](C(=O)NCC(=O)N[C@@H](CO)C(=O)N[C@@H](CC(N)=O)C(=O)N[C@H](C(=O)N1CCC[C@H]1C(N)=O)[C@@H](C)O)C(C)C)[C@@H](C)O)N(C)C(=O)[C@H](C)NC(=O)CN(C)C(=O)[C@H](Cc1ccccc1)NC(=O)[C@H](CO)NC(=O)[C@H](CO)NC(=O)[C@H](CCCNC(=N)N)NC(=O)[C@H](CCC(N)=O)NC(=O)[C@H](CC(C)C)NC(=O)[C@H](Cc1ccccc1)NC(=O)[C@H](Cc1c[nH]cn1)NC(=O)[C@H](C)NC(=O)[C@H](CC(C)C)NC(=O)[C@H](CCCNC(=N)N)NC(=O)[C@H](CCC(N)=O)NC(=O)[C@@H](NC(=O)[C@H](C)NC(=O)[C@@H]1CSSC[C@H](NC(=O)[C@H](CCCNC(=N)N)NC(=O)CC[C@H](NC(=O)CCCCCCCCCCCCCCCCCCC(=O)O)C(=O)O)C(=O)N[C@@H](CC(N)=O)C(=O)N[C@@H]([C@@H](C)O)C(=O)N[C@@H](C)C(=O)N[C@@H]([C@@H](C)O)C(=O)N1)[C@@H](C)O [Compound 61, [19CD]-isoGlu-R-C( )-NTAT-C( )-ATQRLAHFLQRSSF-Gly(Me)-A-Ile(Me)-LSSTEVGSNTP-NH2] ({C20 diacid-γGlu}-RCNTATCATQRLAHFLQRSSF[Sar]A[NMeI]LSSTEVGSNTP-NH2; disulfide 2-7)
